Experimental data: paper PMC7251097, “Aspartate/asparagine-β-hydroxylase: a high-throughput mass spectrometric assay for discovery of small molecule inhibitors” (Scientific Reports, 2020)
Where a name gives a salt, the structure may show the parent alone. Read-outs that look alike come from different tables or passages of the source.

Target: T1, His6-AspH315–758 (human aspartate/asparagine-β-hydroxylase, AspH) (Homo sapiens, UniProt Q12797)
T1 construct: N-Terminally His6-tagged human AspH315–758 (His6-AspH315–758) was produced in E. coli BL21 (DE3) cells; made in house; host or cells: E. coli BL21 (DE3), pET-28a(+) vector
T1 sequence (Q12797 315-758): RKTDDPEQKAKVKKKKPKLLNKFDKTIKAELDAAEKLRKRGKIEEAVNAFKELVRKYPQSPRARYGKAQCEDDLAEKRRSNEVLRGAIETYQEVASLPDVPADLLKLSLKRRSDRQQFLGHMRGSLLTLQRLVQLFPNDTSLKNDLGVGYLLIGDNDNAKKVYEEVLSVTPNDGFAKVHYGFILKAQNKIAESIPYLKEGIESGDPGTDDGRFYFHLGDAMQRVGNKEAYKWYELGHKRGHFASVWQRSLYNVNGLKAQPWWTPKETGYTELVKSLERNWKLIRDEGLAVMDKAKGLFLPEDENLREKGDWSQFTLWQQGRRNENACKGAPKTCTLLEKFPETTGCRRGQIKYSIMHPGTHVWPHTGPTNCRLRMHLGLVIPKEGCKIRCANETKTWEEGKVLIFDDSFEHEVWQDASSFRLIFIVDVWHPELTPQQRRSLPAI
Assay: SPE-MS AspH inhibition assay (LOPAC screen at fixed 20 μM and IC50 dose-response), hydroxylation of cyclic peptide hFX-CP101–119
Assay type: biochemical

[1] = LOPAC compound at fixed 20 uM, plate 1, normalised to DMSO and 2,4-PDCA controls
[2] = LOPAC compound at fixed 20 uM, substrate conversion, plate 1
[3] = LOPAC compound at 20uM, plate 2, conversion of substrate peptide
[4] = LOPAC compound at 20uM, plate 2, normalised to DMSO and 2,4-PDCA controls
[5] = LOPAC Plate 4, compound at 20 uM
[6] = LOPAC Plate 4, compound at 20 uM, substrate conversion
[7] = LOPAC compound at 20uM, plate 3, conversion of substrate peptide

## Nc1ncn([C@@H]2O[C@H](CO)[C@@H](O)[C@H]2O)c(=O)n1 [5-azacytidine]
[1]
  Plate 1 (% inhibition): 7.60%
[2]
  Plate 1 (% conversion): 33.32%

## C[C@H]1O[C@@H](n2cc(F)c(=O)[nH]c2=O)[C@H](O)[C@@H]1O [5-fluoro-5-deoxyuridine]
[3]
  Plate 2 (% conversion): 36.33%
[4]
  Plate 2 (% inhibition): -1.12%

## CCCCCC(O)CCCC(=O)O.[Na] (centres unmarked) [5-hydroxydecanoic acid sodium]
[3]
  Plate 2 (% conversion): 36.96%
[4]
  Plate 2 (% inhibition): -3.01%

## CC(C)c1cccc(C(C)C)c1N1C(=O)c2ccc(O)cc2C1=O [5HPP-33]
  % conversion: 25.79%

## CC(=O)[C@H]1CC[C@H]2[C@@H]3CC[C@H]4C[C@H](O)CC[C@]4(C)[C@H]3C(=O)C[C@]12C [5alpha-Pregnan-3alpha-ol-11,20-dione]
  Plate 3 (% conversion): 35.35%

## CC(=O)[C@H]1CC[C@H]2[C@@H]3CC[C@H]4C[C@H](O)CC[C@]4(C)[C@H]3CC[C@]12C [5alpha-Pregnan-3alpha-ol-20-one]
  % conversion: 26.94%

## O=c1[nH]c2ccccc2c2ccccc12 [6(5H)-Phenanthridinone]
[5]
  % inhibition: -0.0747%
[6]
  % conversion: 36.50%

## NCCCCCC(=O)O [6-Aminohexanoic acid]
[1]
  Plate 1 (% inhibition): -0.76%
[2]
  Plate 1 (% conversion): 36.13%

## COc1cc2c(CCNC(C)=O)c[nH]c2cc1O [6-Hydroxymelatonin]
[3]
  Plate 2 (% conversion): 36.89%
[4]
  Plate 2 (% inhibition): -2.79%

## CCCCCCCCCCC/C=C\C(C)(C)/C=C\CCCC(=O)O [7,7-Dimethyl-(5Z,8Z)-eicosadienoic acid]
[3]
  Plate 2 (% conversion): 5.42%
[4]
  Plate 2 (% inhibition): 91.20%

## O.O=c1cc(-c2ccccc2)oc2c(O)c(O)ccc12 [7,8-Dihydroxyflavone hydrate, reference compound]
  % conversion: 2.70%
  inhibition at 20 µM: 99%
read-out: Inhibition at 20 µM [%]
  inhibition at 20 µM: 99%

## O=[N+]([O-])c1cccc2cn[nH]c12 [7-Nitroindazole]
[7]
  Plate 3 (% conversion): 35.80%

## Cn1c(=O)c2c(nc(C=Cc3cccc(Cl)c3)n2C)n(C)c1=O [8-(3-Chlorostyryl)caffeine]
  Plate 2 (% conversion): 38.57%
20 µM
  Plate 2 (% inhibition): -7.82%

## Cn1c(=O)c2[nH]c(-c3ccc(S(=O)(=O)O)cc3)nc2n(C)c1=O [8-(p-Sulfophenyl)theophylline]
[1]
  Plate 1 (% inhibition): 51.62%
[2]
  Plate 1 (% conversion): 18.54%

## Nc1nc2c(nc(Br)n2[C@@H]2O[C@@H]3COP(=O)([O-])O[C@H]3[C@H]2O)c(=O)[nH]1.[Na+] [8-Bromo-cGMP sodium]
[1]
  Plate 1 (% inhibition): 5.25%
[2]
  Plate 1 (% conversion): 34.11%

## Cn1c(=O)c2[nH]c(C3CCCC3)nc2n(C)c1=O [8-Cyclopentyl-1,3-dimethylxanthine]
[3]
  Plate 2 (% conversion): 36.70%
[4]
  Plate 2 (% inhibition): -2.21%

## CCCn1c(=O)c2[nH]c(C3CCCC3)nc2n(CCC)c1=O [8-Cyclopentyl-1,3-dipropylxanthine]
  Plate 2 (% conversion): 38.65%
20 µM
  Plate 2 (% inhibition): -8.06%

## Nc1ncnc2c1ncn2C1CCCC1 [9-cyclopentyladenine]
[1]
  Plate 1 (% inhibition): 2.94%
[2]
  Plate 1 (% conversion): 34.88%

## CC1=C(/C=C/C(C)=C/C=C/C(C)=C\C(=O)O)C(C)(C)CCC1 [13-cis-retinoic acid]
[6]
  % conversion: 23.26%

## N[C@H](C(=O)O)[C@H]1C[C@@H]1C(=O)O [(2S,1S,2S)-2-(carboxycyclopropyl)glycine]
[3]
  Plate 2 (% conversion): 32.34%
[4]
  Plate 2 (% inhibition): 10.80%

## CC(C)C[C@H]1C(=O)N2CCC[C@H]2[C@]2(O)O[C@](NC(=O)[C@@H]3C=C4c5cccc6[nH]c(Br)c(c56)C[C@H]4N(C)C3)(C(C)C)C(=O)N12.CS(=O)(=O)O [(+)-Bromocriptine methanesulfonate]
  Plate 1 (% conversion): 29.77%
  Plate 1 (% inhibition): 18.18%

## CN(C)CC[C@@H](c1ccc(Br)cc1)c1ccccn1 [(+)-Brompheniramine maleate]
[1]
  Plate 1 (% inhibition): 1.01%
[2]
  Plate 1 (% conversion): 35.53%

## CN(C)CC[C@@H](c1ccc(Cl)cc1)c1ccccn1 [(+)-Chlorpheniramine maleate]
[1]
  Plate 1 (% inhibition): -13.88%
[2]
  Plate 1 (% conversion): 40.53%

## N[C@@H](Cn1oc(=O)[nH]c1=O)C(=O)O [(+)-Quisqualic acid]
  % conversion: 34.23%

## CN1C(=O)CC[C@H]1c1cccnc1 [(-)-Cotinine]
  Plate 1 (% conversion): 36.85%
  Plate 1 (% inhibition): -2.91%

## CN1CC[C@@]2(C)c3cc(O)ccc3N(C)[C@@H]12.O=C(O)/C=C/C(=O)O [(-)-Eseroline fumarate]
  Plate 2 (% conversion): 19.71%
20 µM
  Plate 2 (% inhibition): 48.52%

## C[C@@]12N[C@@H](Cc3ccccc31)c1ccccc12.O=C(O)/C=C\C(=O)O [(-)-MK-801 hydrogen maleate]
  Plate 3 (% conversion): 36.17%

## C=C(C)[C@H]1CC=C(C(=O)O)CC1 [(-)-Perillic acid]
[6]
  % conversion: 29.82%

## C[N+]1(C)[C@@H]2C[C@@H](OC(=O)[C@H](CO)c3ccccc3)C[C@H]1[C@@H]1O[C@@H]12 [(-)-Scopolamine methyl bromide]
  % conversion: 37.79%

## CCN1CCC[C@H]1CNC(=O)c1cc(S(N)(=O)=O)ccc1OC [(-)-Sulpiride]
[6]
  % conversion: 32.10%

## Cl.c1ccc([C@H]2CN3CCSC3=N2)cc1 [(-)-Tetramisole hydrochloride]
  Plate 3 (% conversion): 32.10%

## NC/C=C/C(=O)O [(E)-4-amino-2-butenoic acid]
[5]
  % inhibition: 0.14%
[6]
  % conversion: 36.42%

## C[C@](N)(CCP(=O)(O)O)C(=O)O.Cl [(S)-MAP4 hydrochloride]
[7]
  Plate 3 (% conversion): 32.97%

## CC(C)NC[C@H](O)COc1cccc2ccccc12 [(S)-Propranolol hydrochloride]
[6]
  % conversion: 27.07%

## Cl.NCCNS(=O)(=O)c1cccc2c(Cl)cccc12 [A3 hydrochloride]
  % conversion: 25.50%

## Cl.NC[C@@H]1O[C@H](c2ccccc2)Cc2c1ccc(O)c2O [A-68930 hydrochloride]
[5]
  % inhibition: 78.36%
[6]
  % conversion: 9.73%

## Cl.NC[C@@H]1O[C@H](C23CC4CC(CC(C4)C2)C3)Cc2c1ccc(O)c2O [A-77636 hydrochloride]
  Plate 1 (% conversion): 15.05%
  Plate 1 (% inhibition): 62.00%

## CCS(=O)(=O)Nc1cccc(C(=C2CCCCC2)c2cnc[nH]2)c1 [A-315456]
  Plate 1 (% conversion): 40.98%
  Plate 1 (% inhibition): -15.20%

## CC1=C(C)C(=O)C(CCCCC#CCCCC#CCO)=C(C)C1=O [AA-861]
[1]
  Plate 1 (% inhibition): -23.70%
[2]
  Plate 1 (% conversion): 43.83%

## CNC(=O)[C@H]1O[C@@H](n2cnc3c(NCc4ccc(N)cc4)ncnc32)[C@H](O)[C@@H]1O [AB-MECA]
[1]
  Plate 1 (% inhibition): -6.25%
[2]
  Plate 1 (% conversion): 37.97%

## Cc1cc([C@@H]2CCCN2C)on1.Cl [ABT-418 hydrochloride]
  Plate 1 (% conversion): 35.68%
  Plate 1 (% inhibition): 0.56%

## CCCCCCCCc1ccc(-c2ccc(C(=O)O)cc2)cc1 [AC-55649]
  % conversion: 33.36%
20 µM
  % inhibition: 9.11%

## CC[n+]1c(/C=C/C=C2/N(C)c3ccccc3C2(C)C)sc2ccccc21.[I-] [AC-93253 iodide]
  Plate 2 (% conversion): 41.62%
[4]
  Plate 2 (% inhibition): -16.93%

## NS(=O)(=O)c1nn2cc(-c3ccccc3)nc2s1 [AEG 3482]
  Plate 3 (% conversion): 35.73%

## N#C/C(=C\c1ccc(-c2cc(Cl)ccc2Cl)o1)C(=O)Nc1cccc2ncccc12 [AGK2]
[6]
  % conversion: 36.60%

## NC1(C(=O)O)CCc2cc(C(=O)O)ccc21 (centres unmarked) [AIDA]
[1]
  Plate 1 (% inhibition): 3.11%
[2]
  Plate 1 (% conversion): 34.83%
